Here are results for 13 compounds from patent US6617315B1, “Therapeutic compounds” (priority 1996, dated 2003).

One series concerns HCMV strain AD169. Nature of the series: Human Cytomegalovirus (HCMV) assay, antiviral effect by HCMV DNA hybridization. In kind it is cell-based. The conditions noted are these: HCMV strain AD169 on MRC5 cell monolayers, 96 well plates, 5 days incubation, HCMV DNA by blotting and quantitative specific DNA hybridization. As for the experimental part: Human Cytomegalovirus (HCMV) Assay
(§1) HCMV strain AD169 was grown on monolayers of human embryonic lung cells (MRC5 cells) in 96 well plates. After infection of the cells at a ratio of approximately 0.01 infectious virus particals per cell, the compounds to be tested were added to selected wells at six different concentrations, each in triplicate The same concentrations of compound were also applied to wells containing monolayers of uninfected cells in order to assess compound cytotoxicity. The plates were incubated for 5 days, and the minimum cytotoxic dose was estimated from microscopic examination. The IC50 for antiviral effect was estimated from measurements of HCMV DNA in each well by blotting and quantitative specific DNA hybridization, similar to the method of Gadler. (Antimicrob. Agents Chemother. 1983, 24, 370-374).

The test system of the next series is MRC5 cells. Description: Compound cytotoxicity on uninfected MRC5 cell monolayers. In kind it is cell-based, human. As for the experimental part: as §1
Test in series [1]: as above
The class given is cell-based, human. The conditions noted are these: uninfected MRC5 cell monolayers (human embryonic lung cells); uninfected human embryonic lung cells (MRC5), 5 days incubation, estimated from microscopic examination; read-out: MRC5 tox CC50. As to the method: as §1

In the series with HCMV strain AD169, “2-(Isopropylamino)-4,5,6-trichloro-1-(beta-L-erythro-pentofuranosyl)-1H-benzimidazole [Example 58]” returned an IC50 of 0.15 µM. The compound further yielded a CC50 in the series on MRC5 cells of 20 µM.

As to `C[C@@H]1O[C@H](n2c(NC3CC3)nc3cc(Cl)c(Cl)cc32)[C@@H](O)[C@H]1O` [Example 1, 2-Cyclopropylamino-5,6-dichloro-1-(5-deoxy-beta-L-ribofuranosyl)-1H-benzimidazole], the melting point is 186 to 187 °C. This compound also returned an IC50 in the series with HCMV strain AD169 (Human betaherpesvirus 5, 120 h) of 2.1 µM. The CC50 at 5 days in series [1] is 100 µM.

In turn, `CC(C)Nc1nc2cc(Cl)c(Cl)cc2n1[C@H]1O[C@@H](C)[C@H](O)[C@@H]1O` [Example 3, 2-Isopropylamino-5,6-dichloro-1-(5-deoxy-beta-L-ribofuranosyl)-1H-benzimidazole] displayed a melting point of 103 to 105 °C. In the series on HCMV strain AD169 (Human betaherpesvirus 5, 120 h), this compound returned an IC50 of 0.6 µM. Also, the CC50 at 5 days in series [1] is 30 µM.

`C[C@@H]1O[C@H](n2c(Br)nc3cc(Cl)c(Cl)cc32)[C@@H](O)[C@H]1O` [Example 4, 2-Bromo-5,6-dichloro-1-(5-deoxy-beta-L-ribofuranosyl)-1H-benzimidazole] showed a melting point of 136 to 138 °C.

Turning to `CC(C)Nc1nc2cc(Cl)c(Cl)cc2n1[C@H]1O[C@@H](CCl)[C@H](O)[C@@H]1O` [Example 12, 1-(5-Chloro-5-deoxy-beta-L-ribofuranosyl)-5,6-dichloro-2-isopropylamino-1H-benzimidazole], the melting point fell in the range of 95 to 97 °C. In the series with HCMV strain AD169 (Human betaherpesvirus 5, 120 h), half-maximal inhibition (IC50) required 1.4 µM. In addition, the CC50 at 5 days in series [1] was 30 µM.

Compound `CC(C)(C)Nc1nc2cc(Cl)c(Cl)cc2n1[C@H]1O[C@@H](CCl)[C@H](O)[C@@H]1O` [Example 14, 2-tert-Butylamino-1-(5-Chloro-5-deoxy-beta-L-ribofuranosyl)-5,6-dichloro-1H-benzimidazole] came in with a melting point of 112 to 114 °C. Inhibition with HCMV strain AD169 (Human betaherpesvirus 5, 120 h) was half-maximal at 1 µM (IC50). In addition, the CC50 at 5 days in series [1] is 30 µM.

Turning to `CC(C)Nc1nc2cc(Cl)c(Cl)cc2n1[C@H]1O[C@@H](CO)C[C@@H]1O` [Example 16, 5,6-Dichloro-1-(3-deoxy-beta-L-ribofuranosyl)-2-isopropylamino-1H-benzimidazole], the melting point lay within 153 to 155 °C. Further, in the series on HCMV strain AD169 (Human betaherpesvirus 5, 120 h), inhibition was half-maximal at 0.2 µM (IC50). Besides, the CC50 at 5 days in series [1] was 100 µM.

In turn, `CC(C)Nc1nc2cc(Cl)c(Cl)cc2n1[C@@H]1C[C@@H](O)[C@H](CO)O1` [Example 19, 5,6-Dichloro-1-(2-deoxy-beta-L-erythro-pentofuranosyl)-2-isopropylamino-1H-benzimidazole] yielded a melting point of 114 to 115 °C. The IC50 with HCMV strain AD169 (Human betaherpesvirus 5, 120 h) was 0.1 µM. The CC50 at 5 days in series [1] is 100 µM.

`CC(C)Nc1nc2c(Cl)c(Cl)c(Cl)cc2n1[C@H]1O[C@@H](CO)[C@H](O)[C@@H]1O` [Example 31, 2-(Isopropylamino)-4,5,6-trichloro-1-(beta-L-ribofuranosyl)-1H-benzimidazole]: the melting point was in the range of 223 to 224 °C.

On to `CC(C)Nc1nc2c(Br)c(Cl)c(Cl)cc2n1[C@H]1O[C@@H](CO)[C@H](O)[C@@H]1O` [Example 39, 4-Bromo-5,6-dichloro-2-(isopropylamino)-1-(beta-L-ribofuranosyl)-1H-benzimidazole], for which the melting point lay in the range of 221 to 222 °C.

`CC(C)Nc1nc2cc(F)c(F)cc2n1[C@H]1O[C@@H](CO)[C@H](O)[C@@H]1O` [Example 46, 5,6-Difluoro-2-(isopropylamino)-1-(beta-L-ribofuranosyl)-1H-benzimidazole] had a melting point of 156 to 158 °C.

`CC(C)Nc1nc2c(Cl)cccc2n1[C@H]1O[C@@H](CO)[C@H](O)[C@@H]1O` [Example 50, 4-Chloro-2-(isopropylamino)-1-(beta-L-ribofuranosyl)-1H-benzimidazole] showed a melting point of 225 to 227 °C.

Compound `CC(C)Nc1nc2c(Cl)cc(Cl)cc2n1[C@H]1O[C@@H](CO)[C@H](O)[C@@H]1O` [Example 53, 4,6-Dichloro-2-(isopropylamino)-1-(beta-L-ribofuranosyl)-1H-benzimidazole] displayed a melting point of 212 to 214 °C. For the same compound, in the series with HCMV strain AD169 (Human betaherpesvirus 5, 120 h), the IC50 was determined as 0.15 µM. Also, in series [1], the CC50 at 5 days was 100 µM.

What is called IC50 is the point on the concentration scale where inhibition reaches its midpoint. By CC50 is commonly meant the concentration at which the toxic effect on the cells reaches its halfway point. Usually melting point stands for the temperature of the solid-liquid transition.
